Laboratory results reported in ChEMBL document CHEMBL1147374, “Chemical constituents of Aristolochia rigida and mutagenic activity of aristolochic acid IV” (J Nat Prod, 1993).

Key:
Conditions in all cases: salmonella enterica subsp. enterica serovar typhimurium; call rule not given here
Salmonella typhimurium [1] = experiment: Mutagenic activity in Salmonella Typhimurium TA100 assessed as increase in number of histidine revertants up to 100 ug/plate after 48 hrs in presence of rat S9 liver homogenate by Ames test; type: toxicity, organism-based, Liver S9 fraction
Salmonella typhimurium [2] = experiment: Toxicity in Salmonella Typhimurium TA100 up to 100 ug/plate; type: organism-based
Salmonella typhimurium [3] = experiment: Mutagenic activity in Salmonella typhimurium TA100 assessed as number of histidine revertants after 48 hrs in presence of phenobarbital treated rat S9 liver homogenate by Ames test; type: toxicity, organism-based, Liver S9 fraction
Salmonella typhimurium [4] = experiment: Toxicity in Salmonella Typhimurium TA100 at 500 ug/plate; type: organism-based

With `COc1cc(OC)c2cc([N+](=O)[O-])c3c(C(=O)O)cc4c(c3c2c1)OCO4` [ARISTOLOCHIC ACID IV] the Activity (Salmonella typhimurium [1]) was “Active”, the Activity (Salmonella typhimurium [2]) was “Non-toxic” and the Activity (Salmonella typhimurium [3]) was “Dose-dependent effect”. For the same molecule, the Activity (Salmonella typhimurium [4]) was “Toxic”.
